From patent publication US11339144B2 (Navitor Pharmaceuticals, Inc., priority 2017, dated 2022) come the findings set out here.

Assay [1] concerns the target HA-GST-Rheb (GTP-γ-S loaded) activating mTORC1 (Homo sapiens (Human), UniProt Q15382). In words: Rheb-dependent in vitro kinase assay (Rheb-IVK; LanthaScreen or Western readout). To be noted: Rheb-dependent in vitro kinase assay; read-out: IVK IC50. Format: biochemical. For orientation: In TR-FRET formats the signal depends on donor and acceptor labels being close together.

The target in the next assay is Rheb (Homo sapiens (Human), UniProt Q15382). In words: Affinity Selection Mass Spectrometry (ASMS). It is filed as binding. To be noted: affinity (R3/R0) in Affinity Selection Mass Spectrometry assay. The essentials: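 Affinity selection used 2 μM compound with 60 μM Rheb and 180 μM GDP for 30 min at room temperature. After 10 kDa ultrafiltration washes, protein was denatured in MeCN and bound compound quantified by C18 UPLC with Q-TOF MS, against a no-protein control.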
Chain of Rheb (Q15382 1-169 limits assumed): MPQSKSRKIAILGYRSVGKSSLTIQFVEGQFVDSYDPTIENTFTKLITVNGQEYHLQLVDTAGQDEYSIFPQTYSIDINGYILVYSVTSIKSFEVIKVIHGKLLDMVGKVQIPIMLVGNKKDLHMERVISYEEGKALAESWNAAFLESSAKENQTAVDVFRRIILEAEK

Chain of HA-GST-Rheb (GTP-γ-S loaded) activating mTORC1 (Q15382 1-181): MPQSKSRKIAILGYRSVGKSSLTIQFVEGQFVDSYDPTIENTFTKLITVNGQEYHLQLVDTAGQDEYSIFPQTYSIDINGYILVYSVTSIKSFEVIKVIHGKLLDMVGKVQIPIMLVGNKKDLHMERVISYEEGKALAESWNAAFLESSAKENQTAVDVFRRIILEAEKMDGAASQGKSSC

Turning to `O=C(Nc1ccc(N2CCN(Cc3ccccc3)CC2)c(F)c1)c1cc2c(Sc3ccc(Cl)cc3Cl)cc(Cl)cc2[nH]1` [I-91, N-(4-(4-benzylpiperazin-1-yl)-3-fluorophenyl)-6-chloro-4-(2,4-dichlorophenylthio)-1H-indole-2-carboxamide], the IC50 (usually the concentration at which inhibition is half-maximal) in assay [1] lay within 10 to 100 µM. Moreover, the “ASMS (R3/R0)” value on Rheb was “B (an affinity (R3/R0) between 100% and 20%)”.
Take `NCc1cc2c(Oc3ccccc3)cc(Cl)cc2[nH]1` [I-170, (6-chloro-4-phenoxy-1H-indol-2-yl)methanamine]: in assay [1], the IC50 was in the range of 10 to 100 µM. Further, the “ASMS (R3/R0)” value on Rheb was “B (an affinity (R3/R0) between 100% and 20%)”.
For the compound `O=C(O)c1cc2c(Sc3ccc(OC(F)(F)F)cc3)cc(Cl)cc2[nH]1` [I-129, 6-chloro-4-(4-(trifluoromethoxy)phenylthio)-1H-indole-2-carboxylic acid], the IC50 in assay [1] was in the range of 10 to 100 µM. Moreover, the “ASMS (R3/R0)” value at Rheb was “B (an affinity (R3/R0) between 100% and 20%)”.
As to `OCc1nc2c(Sc3ccc(Cl)cc3Cl)c(Cl)c(Cl)cc2[nH]1` [I-371, (5,6-dichloro-4-(2,4-dichlorophenylthio)-1H-benzo[d]imidazol-2-yl)methanol], the IC50 in assay [1] lay in the range of 10 to 100 µM. Moreover, the “ASMS (R3/R0)” value on Rheb was “B (an affinity (R3/R0) between 100% and 20%)”.
On to `OCc1nc2cc(Cl)c(OCCc3ccc(Cl)cc3)cc2[nH]1` [I-380, (5-chloro-6-(4-chlorophenethoxy)-1H-benzo[d]imidazol-2-yl)methanol], for which, in assay [1], the IC50 lay within 10 to 100 µM. For the same compound, the “ASMS (R3/R0)” value on Rheb was “B (an affinity (R3/R0) between 100% and 20%)”.
For the compound `O=C(O)c1cc2c(Sc3ccc(Br)cc3)cc(Cl)cc2[nH]1` [I-98, 4-(4-bromophenylthio)-6-chloro-1H-indole-2-carboxylic acid], the IC50 in assay [1] lay in the range of 10 to 100 µM. Further, the “ASMS (R3/R0)” value on Rheb is “B (an affinity (R3/R0) between 100% and 20%)”.
`OCc1ccc(Cn2c(CO)cc3c(Br)cc(Oc4ccccc4)cc32)cc1` [I-166]: the IC50 in assay [1] was more than 100 µM. For the same compound, at Rheb, the “ASMS (R3/R0)” value was “B (an affinity (R3/R0) between 100% and 20%)”.
Consider `Clc1ccc(Sc2cccc3[nH]ccc23)c(Cl)c1` [I-212], for which the half-inhibitory concentration (IC50) in assay [1] is more than 3 µM. Further, the “ASMS (R3/R0)” value at Rheb is “B (an affinity (R3/R0) between 100% and 20%)”.
Regarding `CN1CCN(C(=O)c2ccc(Cn3c(C(=O)O)cc4c(Br)cc(Sc5ccc(Cl)c(Cl)c5)cc43)cc2)CC1` [I-52, 4-bromo-6-(3,4-dichlorophenylthio)-1-(4-(4-methylpiperazine-1-carbonyl)benzyl)-1H-indole-2-carboxylic acid], in assay [1], the IC50 lay within 10 to 100 µM. On Rheb, the “ASMS (R3/R0)” value was “B (an affinity (R3/R0) between 100% and 20%)”.
Consider `OCCc1cc2c(Oc3ccccc3)c(Cl)ccc2[nH]1` [I-261, 2-(5-chloro-4-phenoxy-1H-indol-2-yl)ethanol], for which, in assay [1], the 50% inhibitory concentration (IC50) was in the range of 10 to 100 µM. On Rheb, the “ASMS (R3/R0)” value is on record as “C (an affinity (R3/R0)<20%)”.
On to `Clc1cc2nc(-c3ccncc3)[nH]c2cc1Cl` [I-378, 5,6-dichloro-2-(pyridin-4-yl)-1H-benzo[d]imidazole], for which the IC50 in assay [1] was 10 to 100 µM. In addition, the “ASMS (R3/R0)” value on Rheb was “B (an affinity (R3/R0) between 100% and 20%)”.
Regarding `OCc1nc2c(OC[C@H]3CCCC[C@@H]3O)c(Cl)c(Cl)cc2[nH]1` (single isomer, unassigned) [I-388], the IC50 in assay [1] is 10 to 100 µM. The “ASMS (R3/R0)” value on Rheb was “B (an affinity (R3/R0) between 100% and 20%)”.
For the compound `CN1CCN(c2ccc(NC(=O)c3cc4c(Br)cc(Sc5ccc(Cl)c(Cl)c5)cc4[nH]3)cc2)CC1` [I-96, 4-bromo-6-(3,4-dichlorophenylthio)-N-(4-(4-methylpiperazin-1-yl)phenyl)-1H-indole-2-carboxamide], in assay [1], the IC50 was in the range of 10 to 100 µM. Further, on Rheb, the “ASMS (R3/R0)” value is “A (an affinity (R3/R0)>100%)”.
As for `OCc1nc2cc(Cl)c(OCc3ccccc3)cc2n1Cc1ccc(-c2nnn[nH]2)cc1` [I-440, (1-(4-(1H-tetrazol-5-yl)benzyl)-6-(benzyloxy)-5-chloro-1H-benzo[d]imidazol-2-yl)methanol], the 50% inhibitory concentration (IC50) in assay [1] is 10 to 100 µM. Also, at Rheb, the “ASMS (R3/R0)” value is given as “C (an affinity (R3/R0)<20%)”.
